Source: US20180251431A1 (VERTEX PHARMACEUTICALS INCORPORATED, priority 2016, published 2018)

What follows are molecules tested on HEK293 cells (assay: HEK293 VLCFA-LPC IC50 determination (13C-labeled C26:0 LPC by UHPLC/MS)). Details: Homo sapiens, HEK293, HEK293 cells; average of one or more replicates; read-out: Average HEK293 IC50.
Assay type: cell-based, human
How it was run: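 Suspension HEK293 cells (final 0.5 million/mL after mixing with equal volume) incubated 48 hours with compound plus 13C-acetate (1.0 mg/mL in added media), shaking at 37° C. Lipids extracted with hexane/isopropanol or methanol, C13:0 LPC standard. UHPLC/MS of 13C-labeled C26:0 LPC (638.500/104.100 m/z); IC50 by four-parameter fit.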

`O=C(Nc1ccn(-c2ccnc(F)c2)n1)C1(c2cc(F)ccc2F)CC1` [Compound 260, 1-(2,5-difluorophenyl)-N-[1-(2-fluoro-4-pyridyl)pyrazol-3-yl]cyclopropanecarboxamide] and `O=C(Nc1ccn(-c2ccnc(F)c2)n1)C1(c2cc(Cl)ccc2F)CC1` [Compound 264, 1-(5-chloro-2-fluoro-phenyl)-N-[1-(2-fluoro-4-pyridyl)pyrazol-3-yl]cyclopropanecarboxamide] are within 1.5-fold of each other in IC50: 170 nM for the first, 190 nM for the second.

First: O=C(Nc1ccn(-c2ccccc2)n1)C1(c2cc(F)ccc2F)CC1 [Compound 261, 1-(2,5-difluorophenyl)-N-(1-phenylpyrazol-3-yl)cyclopropanecarboxamide]
Second: O=C(Nc1ccn(-c2ccccc2)n1)C1(c2cc(Cl)ccc2F)CC1 [Compound 265, 1-(5-chloro-2-fluoro-phenyl)-N-(1-phenylpyrazol-3-yl)cyclopropanecarboxamide]
The IC50 of the first is 1.5-fold lower: 160 nM for the first, 240 nM for the second. The first is the more potent here.

First: O=C(Nc1ccn(-c2ccnc(F)c2)n1)C1(c2ccc(Cl)cc2F)CC1 [Compound 262, 1-(4-chloro-2-fluoro-phenyl)-N-[1-(2-fluoro-4-pyridyl)pyrazol-3-yl]cyclopropanecarboxamide]
Second: O=C(Nc1ccn(-c2ccnc(F)c2)n1)C1(c2cccc(F)c2F)CC1 [Compound 268, 1-(2,3-difluorophenyl)-N-[1-(2-fluoro-4-pyridyl)pyrazol-3-yl]cyclopropanecarboxamide]
The IC50 of the first is 2.1-fold higher: 300 nM for the first, 140 nM for the second. The second is the more potent here.

First: O=C(Nc1ccn(-c2ccccc2)n1)C1(c2ccc(Cl)cc2F)CC1 [Compound 263, 1-(4-chloro-2-fluoro-phenyl)-N-(1-phenylpyrazol-3-yl)cyclopropanecarboxamide]
Second: O=C(Nc1ccn(-c2ccccc2)n1)C1(c2cccc(F)c2F)CC1 [Compound 269, 1-(2,3-difluorophenyl)-N-(1-phenylpyrazol-3-yl)cyclopropanecarboxamide]
The IC50 of the first is higher: greater than 5000 nM for the first, 98 nM for the second. The second is the more potent here.

Compared with `O=C(Nc1ccn(-c2ccnc(F)c2)n1)C1(c2c(F)cccc2F)CC1` [Compound 266, 1-(2,6-difluorophenyl)-N-[1-(2-fluoro-4-pyridyl)pyrazol-3-yl]cyclopropanecarboxamide], `O=C(Nc1ccn(-c2ccnc(F)c2)n1)C1(c2c(F)cccc2Cl)CC1` [Compound 274, 1-(2-chloro-6-fluorophenyl)-N-(1-(2-fluoropyridin-4-yl)-1H-pyrazol-3-yl)cyclopropane-1-carboxamide] is 2.2-fold higher in IC50: 17 nM for the first, 37 nM for the second.

Going from `O=C(Nc1ccn(-c2ccccc2)n1)C1(c2c(F)cccc2F)CC1` [Compound 267, 1-(2,6-difluorophenyl)-N-(1-phenylpyrazol-3-yl)cyclopropanecarboxamide] to `O=C(Nc1ccn(-c2ccccc2)n1)C1(c2c(F)cccc2Cl)CC1` [Compound 275, 1-(2-chloro-6-fluoro-phenyl)-N-(1-phenylpyrazol-3-yl)cyclopropanecarboxamide], the IC50 rises from 13 nM to 50 nM (3.8-fold).

Going from `O=C(Nc1ccn(-c2ccnc(F)c2)n1)C1(c2cc(F)cc(F)c2)CC1` [Compound 270, 1-(3,5-difluorophenyl)-N-[1-(2-fluoro-4-pyridyl)pyrazol-3-yl]cyclopropanecarboxamide] to `O=C(Nc1ccn(-c2ccccc2)n1)C1(c2cc(F)cc(F)c2)CC1` [Compound 271, 1-(3,5-difluorophenyl)-N-(1-phenylpyrazol-3-yl)cyclopropanecarboxamide], the IC50 rises from 280 nM to 650 nM (2.3-fold).

Compared with `Cc1ccc(F)c(C2(C(=O)Nc3ccn(-c4ccnc(F)c4)n3)CC2)c1Cl` [Compound 272, 1-(2-chloro-6-fluoro-3-methyl-phenyl)-N-[1-(2-fluoro-4-pyridyl)pyrazol-3-yl]cyclopropanecarboxamide], `O=C(Nc1ccn(-c2ccnc(F)c2)n1)C1(c2ncccc2F)CC1` [Compound 277, 1-(3-f1uoro-2-pyridyl)-N-[1-(2-fluoro-4-pyridyl)pyrazol-3-yl]cyclopropanecarboxamide] is 3.8-fold lower in IC50: 460 nM for the first, 120 nM for the second.

Compared with `[2H]C1([2H])C([2H])([2H])C1(C(=O)Nc1ccn(-c2ccnc(F)c2)n1)c1ccccc1F` [Compound 276, 2,2,3,3-tetradeuterio-1-(2-fluorophenyl)-N-[1-(2-fluoro-4-pyridyl)pyrazol-3-yl]cyclopropanecarboxamide], `O=C(Nc1ccn(-c2ccccc2)n1)C1(c2ccncc2F)CC1` [Compound 280, 1-(3-fluoro-4-pyridyl)-N-(1-phenylpyrazol-3-yl)cyclopropanecarboxamide] is 70-fold higher in IC50: 11 nM for the first, 770 nM for the second. The first is the more potent here.

Compared with `O=C(Nc1ccn(-c2ccncn2)n1)C1(c2ccncc2F)CC1` [Compound 278, 1-(3-fluoro-4-pyridyl)-N-(1-pyrimidin-4-ylpyrazol-3-yl)cyclopropanecarboxamide], `O=C(Nc1ccn(-c2ccncn2)n1)C1(c2ncccc2F)CC1` [Compound 279, 1-(3-fluoro-2-pyridyl)-N-(1-pyrimidin-4-ylpyrazol-3-yl)cyclopropanecarboxamide] is lower in IC50: greater than 5000 nM for the first, 520 nM for the second. The second is the more potent here.

`O=C(Nc1ccn(-c2ccccc2)n1)C1(c2ncccc2F)CC1` [Compound 281, 1-(3-fluoro-2-pyridyl)-N-(1-phenylpyrazol-3-yl)cyclopropanecarboxamide] and `O=C(Nc1ccn(-c2ccccc2)n1)C1(c2ccc3c(c2)OC(F)(F)O3)CC1` [Compound 292, 1-(2,2-difluoro-1,3-benzodioxo1-5-yl)-N-(1-phenylpyrazol-3-yl)cyclopropanecarboxamide] are within 1.5-fold of each other in IC50: 58 nM for the first, 85 nM for the second.

`Cc1ccnn1CC(=O)Nc1ccn(-c2ccnc(F)c2)n1` [Compound 282, N-[1-(2-fluoro-4-pyridyl)pyrazol-3-yl]-2-(5-methylpyrazol-1-yl)acetamide] and `O=C(Cn1cccn1)Nc1ccn(-c2ccnc(F)c2)n1` [Compound 283, N-[1-(2-fluoro-4-pyridyl)pyrazol-3-yl]-2-pyrazol-1-yl-acetamide] cannot be ordered by IC50: greater than 2000 nM for the first, greater than 5000 nM for the second.

Compared with `O=C(Nc1ccn(-c2ccnc(F)c2)n1)C1(c2ccc3c(c2)OC(F)(F)O3)CC1` [Compound 285, 1-(2,2-difluoro-1,3-benzodioxol-5-yl)-N-[1-(2-fluoro-4-pyridyl)pyrazol-3-yl]cyclopropanecarboxamide], `O=C(Cc1ccsc1)Nc1ccn(-c2ccnc(F)c2)n1` [Compound 293, N-[1-(2-fluoro-4-pyridyl)pyrazol-3-yl]-2-(3-thienyl)acetamide] is 24-fold higher in IC50: 40 nM for the first, 980 nM for the second.

Going from `O=C(Cn1ccnc1)Nc1ccn(-c2ccnc(F)c2)n1` [Compound 286, N-[1-(2-fluoro-4-pyridyl)pyrazol-3-yl]-2-imidazol-1-yl-acetamide] to `O=C(Cn1cccc1)Nc1ccn(-c2ccnc(F)c2)n1` [Compound 295, N-[1-(2-fluoro-4-pyridyl)pyrazol-3-yl]-2-pyrrol-1-yl-acetamide], the IC50 rises from 5000 nM to greater than 5000 nM. The first is the more potent here.

`O=C(Cn1cccn1)Nc1ccn(-c2ccccc2)n1` [Compound 289, N-(1-phenylpyrazol-3-yl)-2-pyrazol-1-yl-acetamide] and `Cc1cnn(CC(=O)Nc2ccn(-c3ccccc3)n2)c1` [Compound 290, 2-(4-methylpyrazol-1-yl)-N-(1-phenylpyrazol-3-yl)acetamide] cannot be ordered by IC50: greater than 5000 nM for the first, greater than 5000 nM for the second.

First: Cc1ccn(CC(=O)Nc2ccn(-c3ccccc3)n2)n1 [Compound 291, 2-(3-methylpyrazol-1-yl)-N-(1-phenylpyrazol-3-yl)acetamide]
Second: CCC(C)(C(=O)Nc1ccn(-c2ccnc(F)c2)n1)c1ccccc1 (centres unmarked) [Compound 294, N-[1-(2-fluoro-4-pyridyl)pyrazol-3-yl]-2-methyl-2-phenyl-butanamide]
The IC50 of the first is higher: greater than 5000 nM for the first, 390 nM for the second. The second is the more potent here.
